The values that follow come from ChEMBL document CHEMBL1137678, “Comparative study of the trypanocidal activity of the methyl 1-nitrophenyl-1,2,3,4-9H-tetrahydro-beta-carboline-3-carboxylate derivatives and benznidazole using theoretical calculations and cyclic voltammetry” (Eur J Med Chem, 2009).

In assay [1] the test system is Trypanosoma cruzi. The assay is described as follows: Antitrypanosomal activity against epimastigotes of Trypanosoma cruzi Y after 96 hrs by Neubauer haemocytometer. Type of assay: functional, organism-based.
The nature of assay [2]: Selectivity index, ratio of CC50 for monkey LLC-MK2 cells to IC50 for epimastigotes of Trypanosoma cruzi Y. Type of assay: functional.
Assay [3] is described as follows: Selectivity index, ratio of CC50 for mouse J774.G8 cells to IC50 for epimastigotes of Trypanosoma cruzi Y. Type of assay: functional.

What is called IC50 is the midpoint of a concentration-inhibition curve. `COC(=O)[C@@H]1Cc2c([nH]c3ccccc23)[C@@H](c2cccc([N+](=O)[O-])c2)N1` (relative stereo) returned an IC50 in assay [1] of 22.2 µM. For the same compound, the “Selectivity Index” value turned out to be 25.6 in assay [2] and 35.7 in assay [3].
For the compound `COC(=O)[C@@H]1Cc2c([nH]c3ccccc23)[C@H](c2cccc([N+](=O)[O-])c2)N1` (relative stereo), in assay [1], 93.5 µM corresponded to half-maximal inhibition (IC50).
Consider `COC(=O)[C@@H]1Cc2c([nH]c3ccccc23)[C@H](c2ccc([N+](=O)[O-])cc2)N1` (relative stereo), for which the IC50 in assay [1] turned out to be 42.7 µM.
`COC(=O)[C@@H]1Cc2c([nH]c3ccccc23)[C@@H](c2ccc([N+](=O)[O-])cc2)N1` (relative stereo) had an IC50 in assay [1] of more than 100 µM.
